# Experimental data taken from patent publication US8475772B2, “Peptide-based oral care surface reagents for personal care” (E I du Pont de Nemours and Company, priority 2003, dated 2013).
# Several values for one entry are separate records, joined by “and”; a condition that tells them apart may be missing. Equal values may be shown once. Where no end group is shown, it is not given here.
# Tests used:
# [1] = Phage ELISA on pig skin surfaces (specificity control); type: binding; conditions: for Pig Skin A450: phage clone on pig skin, 37° C. 15 min, anti-M13 HRP, mean of at least three replicates
# Procedure: (§1) Enzyme-linked immunosorbent assay (ELISA) was used to evaluate the hair-binding specificity of selected phage-peptide clones. Phage-peptide clones identified in Examples 1 and 2 along with a randomly chosen control G-F9, KHGPDLLRSAPR (given as SEQ ID NO:63) were amplified. More than 10^14 pfu phages were added to pre-blocked hair surfaces.
# (§2) A unique hair or pig skin-bottom 96-well apparatus was created by applying one layer of Parafilm® under the top 96-well block of a Minifold I Dot-Blot System (Schleicher & Schuell, Inc., Keene, N.H.), adding hair or a layer of hairless pig skin on top of the Parafilm® cover, and then tightening the apparatus. For each clone to be tested, the hair-covered well was incubated for 1 h at room temperature with 200 μL of blocking buffer, consisting of 2% non-fat dry milk (Schleicher & Schuell, Inc.) in TBS. A second Minifold system with pig skin at the bottom of the wells was treated with blocking buffer simultaneously to serve as a control. The blocking buffer was removed by inverting the systems and blotting them dry with paper towels. The systems were rinsed 6 times with wash buffer consisting of TBST-0.05%. The wells were filled with 200 μL of TBST-0.5% containing 1 mg/mL BSA and then 10 μL (over 10^12 copies) of purified phage stock was added to each well. The samples were incubated at 37° C. for 15 min with slow shaking. The non-binding phage was removed by washing the wells 10 to 20 times with TBST-0.5%. Then, 100 μL of horseradish peroxidase/anti-M13 antibody conjugate (Amersham USA, Piscataway, N.J.), diluted 1:500 in the blocking buffer, was added to each well and incubated for 1 h at room temperature. The conjugate solution was removed and the wells were washed 6 times with TBST-0.05%. TMB substrate (200 μL), obtained from Pierce Biotechnology (Rockford, Ill.) was added to each well and the color was allowed to develop for between 5 to 30 min, typically for 10 min, at room temperature. Then, stop solution (200 μL of 2 M H2SO4) was added to each well and the solution was transferred to a 96-well plate and the A450 was measured using a microplate spectrophotometer (Molecular Devices, Sunnyvale, Calif.). The resulting absorbance values, reported as the mean of at least three replicates, and the standard error of the mean (SEM) are given in Table 10.
# [2] = Phage ELISA on hair surfaces; type: binding, human; conditions: for Hair A450: phage clone on hair, 37° C. 15 min, anti-M13 HRP, mean of at least three replicates
# Procedure: as §1, §2
# [3] = Interfiber friction test, low load, against another single hair fiber; set-up: species or system human; conditions: mean of fibers; normal force 8.5 mg
# Procedure: (§3) IL) in distilled water. The aqueous solution was mixed at 7000 rpm for 4 min using a Silverson […] High Shear Laboratory Mixer (Silverson Machines, Inc., East Longmeadow, Mass.) with a general purpose disintegrating head and a 0.95 cm mini-micro tubular frame. A 0.5% solution of Dow Corning® 929 Cationic Emulsion (Dow Corning Corp., Midland, Mich.), a commercial conditioning agent, in distilled water was prepared using identical mixing conditions. European dark brown hair swatches (International Hair Importers and Products) were cleaned before testing by immersing in isopropanol for 30 min, then washing 10 times with distilled water. Single hair fibers from these swatches were sent to Textile Research Institute (TRI), Princeton, N.J., for friction testing. […] Frictional force measurements of treated hair fibers were measured by the Interfiber friction test using a single-fiber friction apparatus, as described by […] et al. (J. Appl. Polymer Sci., 85:394-414 (2002)). Hair fibers were evaluated at high normal forces (high load) (0.74 g) against a chromed steel wire, crosshead speed of 1 mm/min, using an Instron Tensile Testing machine. Low normal forces (low load) (8.5 mg) were measured against another single hair fiber using the TRI/ScanTM Surface Force Analyzer (Textile Research Institute). […]
# [4] = Fiber friction test, high load, against chromed steel wire; set-up: species or system human; conditions: normal force 0.74 g
# Procedure: as §3
# [5] = Titer-based phage binding assay on normal hair; set-up: species or system human; conditions: output pfu retained by 10 mg normal hair; input 10^14 pfu of phage clone; acid-eluted phage
# Procedure: Phage clones displaying specific peptides were used for comparing the binding characteristics of different peptide sequences. A titer-based assay was used to quantify the phage binding. This assay measures the output pfu retained by 10 mg of hair surfaces, having a signal to noise ratio of 10^3 to 10^4. The input for all the phage clones was 10^14 pfu. It should be emphasized that this assay measures the peptide-expressing phage particle, rather than peptide binding.
# Normal hairs were cut into 0.5 cm lengths and 10 mg of the cut hair was placed in each well of a 96-well filter plate (Qiagen). Then, the wells were filled with blocking buffer containing 1 mg/mL BSA in TBST-0.5% and incubated for 1 h at 4° C. The hairs were washed 5 times with TBST-0.5%. The wells were then filled with 1 mL of TBST-0.5% containing 1 mg/mL BSA and then purified phage clones (10^14 pfu) were added to each well. The hair samples were incubated for 15 min at room temperature and then washed 10 times with TBST-0.5%. The hairs were transferred to a clean well and 1.0 mL of a non-specific elution buffer, consisting of 1 mg/mL BSA in 0.2 M Glycine-HCl at pH 2.2, was added to each well. The samples were incubated for 10 min and then 160 μL of neutralization buffer (1 M Tris-HCl, pH 9.2) was added to each well. The eluted phages from each well were transferred to a new tube for titering and sequencing analysis.
# To titer the bound phages, the eluted phage was diluted with SM buffer to prepare 10-fold serial dilutions of 10^1 to 10^8. A 10 μL aliquot of each dilution was incubated with 200 μL of mid-log phase E. coli ER2738 (New England BioLabs), and grown in LB medium for 20 min and then mixed with 3 mL of agarose top (LB medium with 5 mM MgCl2, and 0.7% agarose) at 45° C. This mixture was spread onto a LB medium/IPTG/Xgal plate (LB medium with 15 g/L agar, 0.05 g/L IPTG, and 0.04 g/L Xgal) and incubated overnight at 37° C.
# [6] = MB50 ELISA of biotinylated peptides on hair; type: binding, human; conditions: for EC50: biotinylated peptide with C-terminal amidated cysteine; for binding affinity for hair (in words): respective substrate hair
# Procedure: (§4) Hair-binding and skin-binding peptides were synthesized by Syn Pep Inc. (Dublin, Calif.). The peptides were biotinylated by adding a biotinylated lysine residue at the C-terminus of the amino acid binding sequences for detection purposes and an amidated cysteine was added to the C-terminus of the sequence.
# (§5) For hair samples, the procedure used was as follows. The setup of the surface specific 96-well system used was the same as that described in Example 5. Briefly, the 96-wells with hair or pig skin surfaces were blocked with blocking buffer (SUPERBLOCK™ from Pierce Chemical Co., Rockford, Ill.) at room temperature for 1 h, followed by six washes with TBST-0.5%, 2 min each, at room temperature. Various concentrations of biotinylated, binding peptide were added to each well, incubated for 15 min at 37° C., and washed six times with TBST-0.5%, 2 min each, at room temperature. Then, streptavidin-horseradish peroxidase (HRP) conjugate (Pierce Chemical Co.) was added to each well (1.0 μg per well), and incubated for 1 h at room temperature. After the incubation, the wells were washed six times with TBST-0.5%, 2 min each at room temperature. Finally, the color development and the measurement were performed as described in Example 5.
# (§6) The results were plotted as A450 versus the concentration of peptide using GraphPad Prism 4.0 (GraphPad Software, Inc., San Diego, Calif.).
# [7] = Peptide competition ELISA on normal hair; type: binding, human
# Procedure: The purpose of this Example was to test the peptide binding site specificity and affinity of the hair-binding peptide D21 using a competition ELISA. The ELISA assay only detects phage particles that remain bound to the hair surface.
# The synthetic hair-binding peptide D21, given as SEQ ID NO:46, was synthesized by SynPep (Dublin, Calif.). As a control, an unrelated synthetic skin-binding peptide, given as SEQ ID NO:61, was added to the system. The experimental conditions were similar to those used in the ELISA method described in Example 5. Briefly, 100 μL of Binding Buffer (1×TBS with 0.1% Tween®20 and 1 mg/mL BSA) and 10^11 pfu of the pure D21 phage particles were added to each well of the 96-well filter plate, which contained a sample of normal hair. The synthetic peptide (100 μg) was added to each well (corresponding to concentration of 0.8 mM). The reactions were carried out at room temperature for 1 h with gentle shaking, followed by five washes with TBST-0.5%. The remaining steps were identical to the those used in the ELISA method described in Example 5. Each individual ELISA test was performed in triplicate; the values in Table 11 are the means of the triplicate determinations.
# [8] = MB50 ELISA of biotinylated peptides on pig skin; type: binding; conditions: for EC50: Substrate Pig Skin, biotinylated peptide with C-terminal amidated cysteine; for binding affinity for skin (in words): pig skin
# Procedure: as §4, §5
# For the measurement of MB50 of the peptide-skin complexes, the following procedure was used. First, the pigskin was treated to block the endogenous biotin in the skin. This was done by adding streptavidin to the blocking buffer. After blocking the pigskin sample, the skin was treated with D-biotin to block the excess streptavidin binding sites. The remaining steps were identical to those used for the hair samples.
# as §6
Substance,Pig Skin A450 [1],Hair A450 [2],Phage Titer [5],further results
AKTHKHPAPSYS (Hair-binding peptide) [Clone C13],0.024,0.375,–,–
"Conditioner: SEQ ID NO:46 covalently linked to behenyl alcohol; tested at 0.25% with 1.5% lecithin in water (RTNAADHPAAVT; also: covalently linked to behenyl alcohol, site not given here)",–,–,–,"Friction Force Ff, Low Load, Mean [3]: 0.304 mg; Friction Force Ff, High Load, Mean ([4]; mean of fibers): 0.055 g; Friction Force Ff, High Load ([4]; single fibers 1-4): 0.041 g and 0.057 g and 0.070 g and 0.051 g"
DLHTVYH [Clone A],–,–,7.50 × 10^4,–
EQISGSLVAAPW (Hair-binding peptide) [Clone A5],0.256,0.431,–,–
GPHDTSSGGVRPNLHHTSKKEKRENRKVPFYSHSVTSRGNV (Hair-binding peptide) [Clone D5],0.104,0.652,1.67 × 10^8,–
HIKPPTR [Clone B],–,–,1.21 × 10^5,–
HLTVPWRGGGSAVPFYSHSQITLPNH (Hair-binding peptide) [Clone F],–,–,1.11 × 10^6,–
HPMSAPR (Hair-binding peptide) [Clone I],–,–,1.17 × 10^6,–
HPVWPAI [Clone D],–,–,8.20 × 10^4,–
"KHGPDLLRSAPR (Control peptide) [Clone G-F9, reference compound]",−0.137,0.074,–,–
KHPTYRQ [Clone H],–,–,1.30 × 10^6,–
LGIPQNL [Clone D39],0.086,0.685,–,–
LPRIANTWSPS [Clone F35],–,–,–,EC50 ([6]; Substrate Bleached Hair): 3000 nM; binding affinity for hair (in words) [6]: high
MHAHSIA [Clone A36],0.173,0.585,–,–
MPKYYLQ [Clone J],–,–,1.24 × 10^6,–
MPLYYLQ [Clone E],–,–,1.70 × 10^5,–
NSPGYQADSVAIG (Hair-binding peptide) [Clone D30],0.287,0.414,–,–
RTNAADHPAAVT [Clone D21],0.04,1.051,–,"affinity for pig skin (in words) ([1]; phage ELISA): very low affinity for pig skin; selectivity for hair compared to pig skin ([2]; phage ELISA hair vs pig skin): highest selectivity for hair; binding affinity for hair (in words) ([2]; phage ELISA, versus control G-F9): very strong affinity for hair; EC50 ([6]; Substrate Normal Hair): 2000 nM; binding affinity for hair (in words) [6]: high; A450 ([7]; 10^11 pfu D21 phage on normal hair, synthetic peptide 100 μg per well (0.8 mM), mean of triplicate): 1.878; competition with phage clone D21 for hair binding sites (in words) ([7]; synthetic peptide 0.8 mM): does compete with the phage clone D21 for the same binding sites on the hair surface; EC50 [8]: 40000 nM; binding affinity for skin (in words) [8]: relatively low"
SLNWVTIPGPKI (Hair-binding peptide) [Clone C10],0.032,0.542,–,–
TAATTSP [Clone B1],0.127,0.42,–,–
TDMQAPTKSYSN (Hair-binding peptide) [Clone C5],0.047,0.548,–,–
TPALDGLRQPLR (Hair-binding peptide) [Clone C18],0.132,0.34,–,–
TPFHSPENAPGS [SEQ ID NO: 61],–,–,–,EC50 [8]: 700 nM; binding affinity for skin (in words) [8]: high
TPPELLHGDPRS [Clone I-B5],–,–,–,EC50 ([6]; Substrate Normal and Bleached Hair): 300 nM; binding affinity for hair (in words) [6]: high; EC50 [8]: > 100000 nM; binding affinity for skin (in words) [8]: relatively low
